{"source": "patent EP4818176A1", "about": "“TETRACYCLIC DERIVATIVE INHIBITOR, AND PREPARATION METHOD AND USE THEREFOR” (Shanghai Hansoh Biomedical Co., Ltd., priority 2023, dated 2025)", "key": {"[1]": {"target": "T1, PRMT5/MEP50-MTA protein complex (Homo sapiens, UniProt O14744)", "T1 construct": "purchased Viva Biotech", "T1 sequence (O14744 whole entry)": "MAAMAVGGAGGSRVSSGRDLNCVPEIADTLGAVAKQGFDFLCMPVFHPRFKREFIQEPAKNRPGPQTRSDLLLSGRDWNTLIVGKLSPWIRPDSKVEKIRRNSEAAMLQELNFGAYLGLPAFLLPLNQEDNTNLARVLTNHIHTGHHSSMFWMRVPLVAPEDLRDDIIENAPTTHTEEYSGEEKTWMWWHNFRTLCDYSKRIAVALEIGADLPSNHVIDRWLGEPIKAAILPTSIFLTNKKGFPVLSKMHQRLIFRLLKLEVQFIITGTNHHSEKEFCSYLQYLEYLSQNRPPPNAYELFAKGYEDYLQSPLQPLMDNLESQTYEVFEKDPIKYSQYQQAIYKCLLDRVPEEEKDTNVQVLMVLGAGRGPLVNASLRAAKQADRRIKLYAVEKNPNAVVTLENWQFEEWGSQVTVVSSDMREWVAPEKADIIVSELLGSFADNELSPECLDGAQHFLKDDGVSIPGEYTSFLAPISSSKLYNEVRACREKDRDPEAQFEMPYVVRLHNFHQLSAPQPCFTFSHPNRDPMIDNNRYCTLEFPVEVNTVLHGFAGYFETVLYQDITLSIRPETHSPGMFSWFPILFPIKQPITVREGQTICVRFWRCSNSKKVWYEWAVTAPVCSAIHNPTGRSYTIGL", "T1 sequence (Q9BQA1 whole entry partner)": "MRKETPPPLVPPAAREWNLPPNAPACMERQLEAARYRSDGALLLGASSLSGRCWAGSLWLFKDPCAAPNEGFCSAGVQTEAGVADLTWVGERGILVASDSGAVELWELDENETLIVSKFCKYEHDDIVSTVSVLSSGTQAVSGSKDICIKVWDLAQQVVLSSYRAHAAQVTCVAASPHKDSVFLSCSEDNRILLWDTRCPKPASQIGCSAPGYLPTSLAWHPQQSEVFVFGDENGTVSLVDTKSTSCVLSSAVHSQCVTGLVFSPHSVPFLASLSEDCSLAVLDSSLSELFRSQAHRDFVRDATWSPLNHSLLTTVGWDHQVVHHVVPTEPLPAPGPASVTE", "assay": "Thermal shift assay: thermal stability (melting temperature) of PRMT5/MEP50-MTA protein complex", "format": "binding", "conditions": "final compound concentration 8 µM; 2 µM PRMT5/MEP50, 2 µM MTA; Tm minus Tm of DMSO vehicle control", "outline": "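Human PRMT5/MEP50 (2 µM) was preincubated 30 min with 2 µM MTA in 50 mM HEPES, 10 mM DTT, 250 mM NaCl with SYPRO Orange. Compound at 8 µM final (2.5% DMSO vehicle) was added for 10 minutes, then samples were heated 25°C to 95°C at 0.03°C/s. Tm was derived from the melt curve.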"}, "[2]": {"test_system": "HCT116 wild-type cells", "assay": "Cell proliferation inhibition (CellTiter-Glo), HCT116 wild-type cells", "format": "cell-based", "conditions": "Homo sapiens", "outline": "(§1)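 Cells were grown in McCoy's 5A with 10% FBS, adhered overnight, then exposed to serial compound dilutions for 72-240 h at 37°C, 5% CO2, with a vehicle control. Viability was read as CellTiter-Glo luminescence, and IC50 came from nonlinear regression of inhibition rate against concentration.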"}, "[3]": {"test_system": "MTAP Knockout HCT116 cells", "assay": "Cell proliferation inhibition (CellTiter-Glo), HCT116 MTAP knockout cells", "format": "cell-based", "conditions": "for Selectivity: HCT116 IC50 versus MTAP Knockout HCT116 IC50; for IC50: Homo sapiens", "outline": "as §1"}, "[4]": {"target": "hERG potassium channel (Homo sapiens, UniProt Q12809)", "sequence (Q12809 whole entry)": "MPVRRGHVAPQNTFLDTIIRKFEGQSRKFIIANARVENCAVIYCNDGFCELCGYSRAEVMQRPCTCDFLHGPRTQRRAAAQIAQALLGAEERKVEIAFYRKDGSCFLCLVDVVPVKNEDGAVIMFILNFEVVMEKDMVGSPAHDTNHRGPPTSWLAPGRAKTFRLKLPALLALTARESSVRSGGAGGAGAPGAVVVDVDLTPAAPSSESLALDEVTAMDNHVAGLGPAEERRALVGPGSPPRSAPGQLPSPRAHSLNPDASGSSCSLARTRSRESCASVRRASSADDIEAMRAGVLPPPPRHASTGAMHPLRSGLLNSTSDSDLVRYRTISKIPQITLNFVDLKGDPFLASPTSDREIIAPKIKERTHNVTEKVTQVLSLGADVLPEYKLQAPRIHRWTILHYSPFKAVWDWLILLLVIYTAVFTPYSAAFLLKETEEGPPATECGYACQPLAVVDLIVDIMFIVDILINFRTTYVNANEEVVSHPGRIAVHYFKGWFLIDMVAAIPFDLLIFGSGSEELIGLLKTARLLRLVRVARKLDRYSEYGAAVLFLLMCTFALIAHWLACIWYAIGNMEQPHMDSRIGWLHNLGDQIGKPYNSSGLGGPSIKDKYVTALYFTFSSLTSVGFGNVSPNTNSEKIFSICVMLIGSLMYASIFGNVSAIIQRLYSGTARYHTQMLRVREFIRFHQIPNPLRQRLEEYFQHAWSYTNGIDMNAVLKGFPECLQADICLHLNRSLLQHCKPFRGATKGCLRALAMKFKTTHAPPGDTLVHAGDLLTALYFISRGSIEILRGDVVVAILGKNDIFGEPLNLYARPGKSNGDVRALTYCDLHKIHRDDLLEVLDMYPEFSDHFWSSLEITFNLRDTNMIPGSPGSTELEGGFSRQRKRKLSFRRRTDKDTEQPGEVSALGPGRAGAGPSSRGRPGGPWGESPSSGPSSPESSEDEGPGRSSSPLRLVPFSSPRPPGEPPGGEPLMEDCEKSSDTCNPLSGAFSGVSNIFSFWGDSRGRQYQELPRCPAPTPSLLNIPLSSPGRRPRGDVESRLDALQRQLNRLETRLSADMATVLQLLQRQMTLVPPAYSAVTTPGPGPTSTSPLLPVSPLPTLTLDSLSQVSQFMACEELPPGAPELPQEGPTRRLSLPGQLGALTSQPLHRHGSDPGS", "assay": "hERG potassium channel inhibitory activity assay (CHO-hERG cells, tail current)", "format": "cell-based", "conditions": "inhibition of tail current, read-out: inhibitory activity (IC50) against the cardiac hERG potassium channel", "description": "Test Example 5: hERG potassium channel inhibitory activity assay\n1 Study objective: The objective of this test example is to determine the inhibitory effect of the compound on the hERG potassium channel activity. 2 Experimental instruments and reagents: 2.1 Reagents\n3. Experimental method • 3.1 Cell culture: The CHO cells stably expressing the hERG potassium channel (CHO-hERG) used in the experiment were obtained from Sophion Bioscience (Ballerup, Denmark), and passaged and cryopreserved at WuXi AppTec Co., Ltd. in Shanghai. The CHO-hERG cells were cultured and passaged in Ham's F-12 medium containing 1 × GlutaMAX, 10% foetal bovine serum, 100 µg/mL G418 and 100 µg/mL hygromycin B at 37°C with 5% CO2. • 3.2 Preparation of intracellular and extracellular solutions: The extracellular solution was prepared once a month, and aliquoted and stored in 1 L storage bottles. The intracellular solution was prepared once every three months, and aliquoted and cryopreserved at -20°C. The intracellular solution was thawed in a 37°C water bath before the experiment and then placed in an ice bath for later use. • 3.3 Preparation of compounds: The positive control drug amitriptyline hydrochloride and the compounds were dissolved in 100% DMSO (Sigma-Aldrich, D2650) to prepare 10 mM or 30 mM stock solutions. Before the experiment, the stock solutions of the test compounds were diluted with DMSO to prepare solutions 1000-fold or 333-fold higher than the desired test concentrations, and then further diluted 1000-fold or 333-fold with the extracellular solution to achieve the desired concentrations. • 3.4 Cell preparation: The CHO-hERG cells used in the experiment were cultured for at least two days. When the cell density reached more than 75%, the cells were digested with TrypLE, then resuspended in the extracellular solution, and centrifuged. The supernatant was discarded, and then the cells were further resuspended in 2 mL of extracellular solution for later use. • 3.4 Experimental data processing: In data processing, the peak tail current was baseline-corrected when evaluating the hERG blocking effect. The effect of each compound at various concentrations was expressed as the inhibition rate of the tail current. IC50 values were obtained by fitting the data to the Hill equation: I/Icontrol =Bottom + (Top-Bottom)/(1+10^((LogIC50-X) * HillSlope)) • Top: maximum effect; Bottom: minimum effect; Hillslope: slope; X: concentration of the test compound. • IC50: half-maximal inhibitory concentration of the test compound on hERG."}, "[5]": {"assay": "Pharmacokinetics in rats (plasma) after oral administration", "format": "in vivo", "conditions": "rat, po, SD rats, p.o. 5 mg/kg", "protocol": "Test Example 4: Determination of the pharmacokinetics of the compounds of the present invention in rats (plasma) after oral administration.\n1 Study objective: SD rats were used as test animals to study the pharmacokinetic behaviour of the following example compounds in rats (plasma) after oral administration at a dose of 5 mg/kg. 2 Test scheme • 2.1 Test drugs: Vehicle formula: 0.5% CMC-Na (1% Tween 80); the examples of the present invention, made in house. • 2.2 Test animals: 3 SD rats per group, male, purchased from Shanghai Bikai Keyi Biotechnology Co., Ltd., with animal license number (SCXK (Shanghai) 2018-0006, No.20180006037467). • 2.3 Administration: 3 SD rats per group, male, were fasted overnight and then respectively administered PO at a dose of 5 mg/kg and a volume of 10 mL/kg. • 2.4 Sample collection: 0.2 mL of blood was collected from the jugular vein of rats before administration and at 0, 0.25, 0.5, 1, 2, 4, 6, 8 and 24 h after administration, and placed in EDTA-K2test tubes, and the test tubes were centrifuged at 6,000 rpm at 4°C for 6 min to separate the plasma, which was stored at -80°C. The animals were fed 4 h after administration. • 2.5 Sample treatment • 1) 160 uL of acetonitrile was added to 40 uL of plasma sample for precipitation, and after mixing, the mixture was centrifuged at 3,500 × g for 5-20 minutes. • 2) 100 uL of the treated supernatant solution was taken for LC/MS/MS analysis to determine the concentration of the test compounds. • 2.6 Liquid phase analysis • Liquid phase conditions: Shimadzu LC-20AD pump;mass spectrometry conditions: AB Sciex API 4000 mass spectrometer • Chromatographic column: Phenomenex Gemiu 5 um C18 50 × 4.6 mm • Mobile phase: solution A: 0.1% formic acid in water, solution B: methanol • Flow rate: 1.0 mL/min, elution time: 0-4.0 min, with eluents as follows:\nExperimental results and analysis: The main pharmacokinetic parameters were calculated using WinNonlin 8.2."}, "[6]": {"conditions": "HCT-116, read-out: MTAP Knockout HCT116 IC50"}}, "note": "Read-outs that look alike come from different tables or passages of the source.", "data": [{"smiles": "Nc1nc2cc3c(cc2n2cncc12)C(=O)N(Cc1ccc(C(F)(F)F)cn1)CCCCOC3", "note": "[Example 417, 4-Amino-13-((5-(trifluoromethyl)pyridin-2-yl)methyl)-10,11,12,13-tetrahydro-7H-imidazo [1,5-a][1,6] oxazino [3,4-g] quinoxalin-14(9H)-one]", "values": [{"measurement": "ΔTm at 8 µM", "setting": "[1]", "result": 11.1, "unit": "°C"}, {"measurement": "IC50", "setting": "[2]; HCT-116, read-out: HCT116 IC50", "result": 3800, "unit": "nM"}, {"measurement": "Selectivity", "setting": "[3]", "result": 346}, {"measurement": "IC50", "setting": "[3]; [6]", "result": 11, "unit": "nM"}, {"measurement": "IC50", "setting": "[4]", "result": "> 30000", "unit": "nM"}]}, {"smiles": "Nc1nc2cc3c(cc2n2cncc12)C(=O)N(Cc1ccc(-c2c(F)cccc2F)cn1)CCCOC3", "note": "[Example 298, 4-Amino-12-((5-(2,6-difluorophenyl)pyridin-2-yl)methyl)-9,10,11,12-tetrahydroimidazo[1,5-a][1,5]oxazolo[8,7-g]quinoxalin-13(7H)-one]", "values": [{"measurement": "ΔTm at 8 µM", "setting": "[1]", "result": 12.5, "unit": "°C"}, {"measurement": "IC50", "setting": "[2]; HCT-116, read-out: HCT116 IC50", "result": 219, "unit": "nM"}, {"measurement": "Selectivity", "setting": "[3]", "result": 81}, {"measurement": "IC50", "setting": "[3]; [6]", "result": 2.7, "unit": "nM"}, {"measurement": "IC50", "setting": "[4]", "result": "> 30000", "unit": "nM"}]}, {"smiles": "Nc1nc2cc3c(cc2n2cncc12)C(=O)N(Cc1ccc(C(F)(F)F)cn1)CCCOC3", "note": "[Example 176, 4-Amino-12-((5-(trifluoromethyl)pyridin-2-yl)methyl)-9,10,11,12-tetrahydroimidazo[1,5-a][1,5]oxazonino[8,7-g]quinoxalin-13(7H)-one]", "values": [{"measurement": "ΔTm at 8 µM", "setting": "[1]", "result": 11.5, "unit": "°C"}, {"measurement": "IC50", "setting": "[2]; HCT-116, HCT116 wild-type cells, proliferation inhibition, Cell Titer-Glo, read-out: HCT116 IC50", "result": 946, "unit": "nM"}, {"measurement": "Selectivity", "setting": "[3]", "result": 62}, {"measurement": "IC50", "setting": "[3]; HCT-116, MTAP Knockout HCT116 cells, proliferation inhibition, Cell Titer-Glo, read-out: MTAP Knockout HCT116 IC50", "result": 15, "unit": "nM"}, {"measurement": "IC50", "setting": "[4]", "result": "> 30000", "unit": "nM"}]}, {"smiles": "Nc1nc2cc3c(cc2c2c1COC2)C(=O)N(Cc1ccc(C(F)(F)F)cn1)CCCOC3", "note": "[Example 178, 4-Amino-12-((5-(trifluoromethyl)pyridin-2-yl)methyl)-3,7,9,10,11,12-hexahydrofuro[3,4-c][1,5]oxazolino[7,8-g]quinolin-13(1H)-one]", "values": [{"measurement": "ΔTm at 8 µM", "setting": "[1]", "result": 11.2, "unit": "°C"}, {"measurement": "IC50", "setting": "[2]; HCT-116, read-out: HCT116 IC50", "result": 2380, "unit": "nM"}, {"measurement": "Selectivity", "setting": "[3]", "result": 131}, {"measurement": "IC50", "setting": "[3]; [6]", "result": 18, "unit": "nM"}, {"measurement": "AUC(0-inf)", "setting": "[5]", "result": 2790, "unit": "ng·h/mL"}, {"measurement": "half-life", "setting": "[5]", "result": 1.9, "unit": "h"}, {"measurement": "Cmax", "setting": "[5]; read-out: Cmax", "result": 544, "unit": "ng/mL"}, {"measurement": "MRT inf", "setting": "[5]; read-out: MRT0-∞", "result": 3.7, "unit": "h"}, {"measurement": "Tmax", "setting": "[5]; read-out: tmax", "result": 1.7, "unit": "h"}, {"measurement": "IC50", "setting": "[4]", "result": "> 30000", "unit": "nM"}]}]}
